Experimental data as given in US9145354B2, “Pharmaceutical compounds” (priority 2011, dated 2015).
Where two headings read alike, the source gives them in different places.

Target: full length NS3/4a (Hepatitis C virus genotype 1b (isolate BK) (HCV), UniProt P26663)
Experiment: NS3 Protease Assay (Example A), FRET-based
Type: biochemical
Experimental: The HCV NS3 protease functions have been extensively studied and are considered as potential targets for antiviral therapy: see for example the many references listed in the introductory section of this application. Therefore, the activity of the compounds of the invention as anti-HCV agents was assessed using a full length HCV NS3 protease.
The protease activity of the full length NS3/4a was measured using a FRET-based assay utilizing a peptide substrate derived from the NS4A/B cleavage site (Anaspec) and labelled at one end with a quencher (QXL520) and at the other with a fluorophore (5-FAMsp). NS3/4a (produced in-house by literature methods) was incubated with test compounds and peptide substrate in 50 mM Tris pH8, 20 mM DTT, 1% CHAPS, 10% glycerol and 5% DMSO. The reaction was followed by monitoring the change in fluorescence on a Molecular Devices Gemini plate reader for 30 minutes at room temperature. Initial rates were calculated from the progress curves using SoftMax Pro (Molecular Devices). IC50 values were then calculated from replicate curves using Prism GraphPad software.

[1] = HCV NS3 protease assay, full length NS3/4a, read-out: Assay A IC50 (μM) average
[2] = read-out: IC50 against the protease activity of the full length NS3/4a
[3] = stated as IC50 less than 30 μM or at least 40% inhibition at a concentration of 100 μM, read-out: IC50 against the protease activity of the full length NS3/4a

Chain of full length NS3/4a (P26663 1027-1657): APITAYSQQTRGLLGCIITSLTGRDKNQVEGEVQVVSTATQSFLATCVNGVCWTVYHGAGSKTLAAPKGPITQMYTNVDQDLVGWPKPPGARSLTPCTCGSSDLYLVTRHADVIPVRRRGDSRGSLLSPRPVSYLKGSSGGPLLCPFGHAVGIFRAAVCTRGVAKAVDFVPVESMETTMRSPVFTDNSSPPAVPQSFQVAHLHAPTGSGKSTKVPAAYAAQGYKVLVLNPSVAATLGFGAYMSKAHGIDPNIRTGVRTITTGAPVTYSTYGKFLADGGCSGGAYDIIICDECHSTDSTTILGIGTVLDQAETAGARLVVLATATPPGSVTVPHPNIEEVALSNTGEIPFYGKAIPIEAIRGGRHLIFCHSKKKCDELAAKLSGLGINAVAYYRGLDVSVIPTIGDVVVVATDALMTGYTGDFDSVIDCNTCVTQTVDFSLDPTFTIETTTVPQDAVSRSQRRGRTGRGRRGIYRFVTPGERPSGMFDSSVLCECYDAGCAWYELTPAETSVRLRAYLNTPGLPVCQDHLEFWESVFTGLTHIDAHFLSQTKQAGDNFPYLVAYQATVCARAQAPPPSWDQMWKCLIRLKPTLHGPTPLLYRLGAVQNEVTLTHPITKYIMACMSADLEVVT

CC[C@@H](N)c1ccc(Cl)c(C(=O)c2ccccn2)c1F [Example 14, (1R)-1-{4-chloro-2-fluoro-3-[(pyridin-2-yl)carbonyl]phenyl}propan-1-amine]
IC50 [1]: 2.5 µM
IC50 [2]: 1 to 5 µM

CC[C@@H](N)c1ccc(Cl)c(C(=O)c2ccncc2)c1F [Example 15, (1R)-1-{4-chloro-2-fluoro-3-[(pyridin-4-yl)carbonyl]phenyl}propan-1-amine]
IC50 [1]: 0.84 µM
IC50 [2]: < 1 µM

CC[C@@H](N)c1ccc(Cl)c(C(=O)c2ccns2)c1F [Example 16, (1R)-1-{4-chloro-2-fluoro-3-[(1,2-thiazol-5-yl)carbonyl]phenyl}propan-1-amine]
IC50 [1]: 0.47 µM
IC50 [2]: < 1 µM

CC[C@@H](N)c1ccc(Cl)c(C(=O)c2cncc(OC)c2)c1F [Example 17, (1R)-1-{4-chloro-2-fluoro-3-[(5-methoxypyridin-3-yl)carbonyl]phenyl}propan-1-amine]
inhibition at 100 µM: 65%

CC[C@@H](N)c1ccc(Cl)c(C(=O)c2cccc(C#N)c2)c1F [Example 18, 3-({3-[(1R)-1-aminopropyl]-6-chloro-2-fluorophenyl}carbonyl)benzonitrile]
IC50 [1]: 0.62 µM
IC50 [2]: < 1 µM

CC[C@@H](N)c1ccc(Cl)c(C(=O)c2ccc(C(=O)O)nc2)c1F [Example 19, 5-({3-[(1R)-1-aminopropyl]-6-chloro-2-fluorophenyl}carbonyl)pyridine-2-carboxylic acid]
IC50 [1]: 20 µM
IC50 [3]: < 30 µM

CC[C@@H](N)c1ccc(Cl)c(C(=O)c2nccs2)c1F [Example 20, (1R)-1-{4-chloro-2-fluoro-3-[(1,3-thiazol-2-yl)carbonyl]phenyl}propan-1-amine]
IC50 [1]: 0.82 µM
IC50 [2]: < 1 µM

CC[C@@H](N)c1ccc(Cl)c(C(=O)c2cc(C)on2)c1F [Example 21, (1R)-1-{4-chloro-2-fluoro-3-[(5-methyl-1,2-oxazol-3-yl)carbonyl]phenyl}propan-1-amine]
IC50 [1]: 1 µM
IC50 [2]: 1 to 5 µM

CC[C@@H](N)c1ccc(Cl)c(C(=O)c2ccc(C(N)=O)nc2)c1F [Example 22, 5-({3-[(1R)-1-aminopropyl]-6-chloro-2-fluorophenyl}carbonyl)pyridine-2-carboxamide]
IC50 [1]: 1.8 µM
IC50 [2]: 1 to 5 µM

[2H]C([2H])([2H])C([2H])([2H])[C@@H](N)c1ccc(Cl)c(C(=O)c2ccccc2)c1F [Example 23, (1R)-1-(3-benzoyl-4-chloro-2-fluorophenyl)(2,2,3,3,3-D)propan-1-amine]
IC50 [1]: 0.11 µM
IC50 [2]: < 1 µM

[2H]C([2H])([2H])C([2H])([2H])[C@H](N)c1ccc(Cl)c(C(=O)c2ccccc2)c1F [Example 24, (1S)-1-(3-benzoyl-4-chloro-2-fluorophenyl)(2,2,3,3,3-D)propan-1-amine]
IC50 [1]: 0.075 µM
IC50 [2]: < 1 µM

CC[C@@H](N)c1ccc(Cl)c(C(=O)c2ccc[n+]([O-])c2)c1F [Example 25, [3-((R)-1-Amino-propyl)-6-chloro-2-fluoro-phenyl]-(1-oxy-pyridin-3-yl)-methanone]
inhibition at 30 µM (@ 30 uM): 59%
IC50 [3]: < 30 µM

CC[C@H](N)c1ccc(Cl)c(C(=O)c2cccnc2)c1F [Example 26, (1S)-1-{4-chloro-2-fluoro-3-[(pyridin-3-yl)carbonyl]phenyl}propan-1-amine]
IC50 [1]: 0.63 µM
IC50 [2]: < 1 µM

N[C@@H](c1ccc(Cl)c(C(=O)c2ccc(F)cc2)c1F)C1CC1 [Example 27, (R)-{4-chloro-2-fluoro-3-[(4-fluorophenyl)carbonyl]phenyl}(cyclopropyl)methanamine]
IC50 [1]: 0.22 µM
IC50 [2]: < 1 µM

N[C@@H](c1ccc(Cl)c(C(=O)c2cccnc2)c1F)C1CC1 [Example 28, (R)-{4-chloro-2-fluoro-3-[(pyridin-3-yl)carbonyl]phenyl}(cyclopropyl)methanamine]
IC50 [1]: 1.5 µM
IC50 [2]: 1 to 5 µM

CC[C@@H](N)c1ccc(Cl)c(C(=O)c2ccc(Cl)nc2)c1F [Example 29, (1R)-1-{4-chloro-3-[(6-chloropyridin-3-yl)carbonyl]-2-fluorophenyl}propan-1-amine]
IC50 [1]: 0.5 µM
IC50 [2]: < 1 µM

CC[C@H](N)c1ccc(Cl)c(C(=O)c2ccc(Cl)nc2)c1F [Example 30, (1S)-1-{4-chloro-3-[(6-chloropyridin-3-yl)carbonyl]-2-fluorophenyl}propan-1-amine]
IC50 [1]: 0.21 µM
IC50 [2]: < 1 µM

CC[C@H](N)c1ccc(Cl)c(C(=O)c2ccc(N)nc2)c1F [Example 31, 5-({3-[(1S)-1-aminopropyl]-6-chloro-2-fluorophenyl}carbonyl)pyridin-2-amine]
IC50 [1]: 0.18 µM
IC50 [2]: < 1 µM

N#Cc1ccc(C(=O)c2c(Cl)ccc([C@H](N)C3CC3)c2F)cc1 [Example 32, 4-({3-[(R)-amino(cyclopropyl)methyl]-6-chloro-2-fluorophenyl}carbonyl)benzonitrile]
IC50 [1]: 0.058 µM
IC50 [2]: < 1 µM

N[C@@H](c1ccc(Cl)c(C(=O)c2ccncc2)c1F)C1CC1 [Example 33, (R)-{4-chloro-2-fluoro-3-[(pyridin-4-yl)carbonyl]phenyl}(cyclopropyl)methanamine]
IC50 [1]: 0.71 µM
IC50 [2]: < 1 µM

CC[C@@H](N)c1ccc(Cl)c(C(=O)c2ccc(C#N)nc2)c1F [Example 34, 5-({3-[(1R)-1-aminopropyl]-6-chloro-2-fluorophenyl}carbonyl)pyridine-2-carbonitrile]
inhibition at 3 µM: 55%
IC50 [2]: 1 to 5 µM

CC[C@@H](N)c1ccc(Cl)c(C(=O)c2ccc(N(C)C)nc2)c1F [Example 35, 5-({3-[(1R)-1-aminopropyl]-6-chloro-2-fluorophenyl}carbonyl)-N,N-dimethylpyridin-2-amine]
inhibition at 10 µM: 30%

CC[C@@H](N)c1ccc(Cl)c(C(=O)c2ccc(NC)nc2)c1F [Example 36, 5-({3-[(1R)-1-aminopropyl]-6-chloro-2-fluorophenyl}carbonyl)-N-methylpyridin-2-amine]
IC50 [1]: 0.71 µM
IC50 [2]: < 1 µM

CC[C@@H](N)c1ccc(Cl)c(C(=O)c2ccc(-n3cccn3)nc2)c1F [Example 37, (1R)-1-(4-chloro-2-fluoro-3-{[6-(1H-pyrazol-1-yl)pyridin-3-yl]carbonyl}phenyl)propan-1-amine]
IC50 [1]: 0.49 µM
IC50 [2]: < 1 µM

CC[C@@H](N)c1ccc(Cl)c(C(=O)c2ccc(=O)[nH]c2)c1F [Example 38, 5-({3-[(1R)-1-aminopropyl]-6-chloro-2-fluorophenyl}carbonyl)-1,2-dihydropyridin-2-one]
IC50 [1]: 3.6 µM
IC50 [2]: 1 to 5 µM

CC[C@@H](N)c1ccc(C)c(C(=O)c2ccccc2)c1F [Example 39, (1R)-1-(3-benzoyl-2-fluoro-4-methylphenyl)propan-1-amine]
IC50 [1]: 0.73 µM
IC50 [2]: < 1 µM

CC[C@@H](N)c1ccc(OC)c(C(=O)c2ccccc2)c1F [Example 40, (1R)-1-(3-benzoyl-2-fluoro-4-methoxyphenyl)propan-1-amine]
IC50 [1]: 0.84 µM
IC50 [2]: < 1 µM

CC[C@@H](N)c1ccc(Cl)c(C(=O)c2cc[n+]([O-])cc2)c1F [Example 42, [3-((R)-1-Amino-propyl)-6-chloro-2-fluoro-phenyl]-(1-oxy-pyridin-4-yl)-methanone]
IC50 [1]: 0.53 µM
IC50 [2]: < 1 µM

CC[C@@H](N)c1ccc(F)c(C(=O)c2ccccc2)c1F [Example 43, (1R)-1-(3-benzoyl-2,4-difluorophenyl)propan-1-amine]
IC50 [1]: 0.74 µM
IC50 [2]: < 1 µM

CC[C@@H](N)c1ccc(O)c(C(=O)c2ccccc2)c1F [Example 44, 4-[(1R)-1-aminopropyl]-2-benzoyl-3-fluorophenol]
inhibition at 100 µM: 30%

CC[C@@H](N)c1ccc(Cl)c(C(=O)c2cncc(N)c2)c1F [Example 45, 5-({3-[(1R)-1-aminopropyl]-6-chloro-2-fluorophenyl}carbonyl)pyridin-3-amine]
inhibition at 10 µM: 50%
IC50 [3]: < 30 µM

CC[C@@H](N)c1ccc(Cl)c(C(=O)c2ccc(-n3cc(CO)cn3)nc2)c1F [Example 46, {1-[5-({3-[(1R)-1-aminopropyl]-6-chloro-2-fluorophenyl}carbonyl)pyridin-2-yl]-1H-pyrazol-4-yl}methanol]
inhibition at 10 µM: 64%
IC50 [3]: < 30 µM

Nc1ccc(C(=O)c2c(Cl)ccc([C@H](N)C3CC3)c2F)cn1 [Example 47, 5-({3-[(R)-amino(cyclopropyl)methyl]-6-chloro-2-fluorophenyl}carbonyl)pyridin-2-amine]
IC50 [1]: 0.18 µM
IC50 [2]: < 1 µM

CC[C@@H](N)c1ccc(Cl)c(C(=O)c2ccc(COC(C)=O)cc2)c1F [Example 49, [4-({3-[(1R)-1-aminopropyl]-6-chloro-2-fluorophenyl}carbonyl)phenyl]methyl acetate]
IC50 [1]: 0.15 µM
IC50 [2]: < 1 µM

CC[C@@H](N)c1ccc(Cl)c(C(=O)c2ccc(CO)cc2)c1F [Example 50, [4-({3-[(1R)-1-aminopropyl]-6-chloro-2-fluorophenyl}carbonyl)phenyl]methanol]
IC50 [1]: 0.21 µM
IC50 [2]: < 1 µM

CC[C@@H](N)c1ccc(Cl)c(C(=O)c2cnc(SC)nc2)c1F [Example 51, (1R)-1-(4-chloro-2-fluoro-3-{[2-(methylsulfanyl)pyrimidin-5-yl]carbonyl}phenyl)propan-1-amine]
inhibition at 3 µM: 44%
IC50 [3]: < 30 µM
